Assay results reported in patent US9487489B2, “Halogen-substituted pyrazole derivatives as pest-control agents” (BAYER CROPSCIENCE AKTIENGESELLSCHAFT, priority 2013, dated 2016).

How the values were obtained:
[1] = test system: engorged adult female cattle ticks (Boophilus microplus); test: Boophilus microplus injection test (BOOPMI Inj); assay type: in vivo; conditions: application rate 20 μg/animal; injection into abdomen; assessed after 7 days
Protocol: C. Boophilus microplus-injection Test (BOOPMI Inj)
(§1) Solvent: dimethyl sulphoxide
To produce a suitable preparation of active compound, 10 mg of active compound are mixed with 0.5 ml of solvent, and the concentrate is diluted with solvent to the desired concentration.
1 μl of the active compound solution is injected into the abdomen of 5 engorged adult female cattle ticks (Boophilus microplus). The animals are transferred into dishes and kept in a climate-controlled room.
The activity is assessed after 7 days by laying of fertile eggs. Eggs whose fertility is not visible from the outside are stored in a climate-controlled cabinet until the larvae hatch after about 42 days. An efficacy of 100% means that none of the ticks has laid any fertile eggs; 0% means that all eggs are fertile.

[2] = test system: adult cat fleas (Ctenocephalides felis); test: Ctenocephalides felis oral test (CTECFE); assay type: in vivo; conditions: application rate 100 ppm in citrated cattle blood; after 2 days
Protocol: D. Ctenocephalides felis-oral Test (CTECFE)
as §1
To produce a suitable preparation of active compound, 10 mg of active compound are mixed with 0.5 ml of dimethyl sulphoxide. Dilution with citrated cattle blood gives the desired concentration.
About 20 unfed adult cat fleas (Ctenocephalides felis) are placed into a chamber which is closed at the top and bottom with gauze. A metal cylinder whose bottom end is closed with a parafilm is placed onto the chamber. The cylinder contains the blood/active ingredient preparation, which can be imbibed by the fleas through the parafilm membrane.
After 2 days, the kill in % is determined 100% means that all of the fleas have been killed; 0% means that none of the fleas have been killed.

[3] = test system: L1 larvae of the Australian sheep blowfly (Lucilia cuprina); test: Lucilia cuprina test (LUCICU); assay type: in vivo; conditions: application rate 100 ppm; after 2 days
Protocol: E. Lucilia cuprina Test (LUCICU)
as §1
To produce a suitable preparation of active compound, 10 mg of active compound are mixed with 0.5 ml of dimethyl sulphoxide, and the concentrate is diluted with water to the desired concentration.
About 20 L1 larvae of the Australian sheep blowfly (Lucilia cuprina) are transferred into a test vessel containing minced horsemeat and the active compound preparation of the desired concentration.
After 2 days, the kill in % is determined 100% means that all of the larvae have been killed; 0% means that none of the larvae have been killed.

[4] = test system: larvae of the mustard beetle (Phaedon cochleariae); test: Phaedon cochleariae spray test (PHAECO); assay type: in vivo; conditions: Chinese cabbage leaf discs, after 7 days
Procedure, shortened: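 Compound dissolved in acetone/dimethylformamide with alkylaryl polyglycol ether emulsifier, made up in water containing 1000 ppm emulsifier, then diluted to test concentrations and sprayed against mustard beetle larvae. Efficacy (% larvae killed) scored after 7 days.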

[5] = test system: caterpillars of the armyworm (Spodoptera frugiperda); test: Spodoptera frugiperda spray test (SPODFR); assay type: in vivo; conditions: maize leaf discs, after 7 days
Procedure, shortened: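 Maize leaf discs sprayed with compound in acetone/DMF with alkylaryl polyglycol ether emulsifier (1000 ppm) in water, dried, then infested with armyworm caterpillars. Mortality (%) scored after 7 days; 100% = all caterpillars killed, 0% = none killed.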

[6] = test system: greenhouse red spider mite (Tetranychus urticae); test: Tetranychus urticae spray test, OP-resistant (TETRUR); assay type: in vivo; conditions: bean leaf discs, after 6 days
Procedure, shortened: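 Bean leaf discs carrying all stages of OP-resistant Tetranychus urticae were sprayed with compound formulated in acetone/dimethylformamide and diluted in water with 1000 ppm alkylaryl polyglycol ether emulsifier. Mortality (% efficacy, 100% = all mites killed) scored after 6 days.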

[7] = logP determination by HPLC on a reversed-phase column (C18), EEC Directive 79/831 Annex V.A8; assay type: physicochemical
Procedure, shortened: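 Retention on a C18 reversed-phase column (Zorbax Eclipse Plus, 1.8 micron) was used, eluting with acetonitrile/water, each containing formic acid. The gradient ran from 10% to 95% acetonitrile over 4.25 min, then held 1.25 min, at 55° C and 2.0 ml/min, with MS detection.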

[8] = test system: adult cat fleas (Ctenocephalides felis); test: Ctenocephalides felis in vitro contact test with adult cat fleas (T1); conditions: after 48 h
Procedure, shortened: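 Test compound was dissolved in acetone p.a. (9 mg per 1 ml) and diluted as needed. 250 μl was spread evenly over the inner walls and floor of a 25 ml test tube by rotating on an orbital shaker for 2 h at 30 rpm. Once the solvent evaporated, 5-10 adult Ctenocephalides felis were added. Tubes were capped with a perforated plastic lid and kept horizontal at room temperature and ambient humidity.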

[9] = HPLC on reversed-phase column (C18), acetonitrile/water with formic acid, EEC Directive 79/831 Annex V.A8
[10] = HPLC, reversed-phase C18, acetonitrile (0.1% formic acid)/water (0.09% formic acid) gradient

| Compound | efficacy (laying of fertile eggs) [1] [%] | efficacy (kill in %) [2] [%] | efficacy (kill in %) [3] [%] | efficacy in % ([4]; application rate 500 g/ha) [%] | efficacy in % ([5]; application rate 500 g/ha) [%] | efficacy in % ([6]; application rate 100 g/ha) [%] | logP [7, 9] | efficacy in % ([4]; application rate 100 g/ha) [%] | efficacy in % ([5]; application rate 100 g/ha) [%] | efficacy in % ([6]; application rate 500 g/ha) [%] | efficacy (dead or moribund fleas) ([8]; application rate 1 μg/cm^2) [%] | efficacy (dead or moribund fleas) ([8]; application rate 5 μg/cm^2) [%] | logP [7, 10] |
| --- | --- | --- | --- | --- | --- | --- | --- | --- | --- | --- | --- | --- | --- |
| Cn1nc(C(F)(F)C(F)(F)F)c(C(F)(F)F)c1-n1cc(-c2cc(OC(F)(F)F)cc(C(=O)NC3(C#N)CC3)c2)cn1 [Ic-75] | 100 | 100 | 100 | 100 | 100 | – | – | – | – | – | – | – | – |
| COc1cc(C(=O)NC2(C#N)CC2)cc(-c2cnn(-c3c(C(F)(F)F)c(C(F)(F)C(F)(F)F)nn3C)c2)c1 [Ic-63] | 100 | 95 | 100 | 100 | – | 100 | – | – | – | – | – | – | – |
| Cn1nc(C(F)(F)C(F)(F)F)c(C(F)(F)F)c1-n1cc(-c2ccc(Cl)c(C(=O)NC3CC3)c2)c(C(F)(F)F)n1 [Ic-4] | 100 | 100 | 100 | – | – | – | 4.51 | – | – | – | – | – | – |
| O=C(NC1CC1)c1cc(-c2cnn(-c3c(C(F)(F)F)c(C(F)(F)C(F)(F)F)nn3-c3ncccc3Cl)c2)ccc1Cl [Ic-14] | 100 | – | 100 | – | – | – | 4.28 | 100 | 100 | – | – | – | – |
| Cn1nc(C(F)(F)C(F)(F)F)c(C(F)(F)F)c1-n1cc(-c2cccc(C(=O)NCc3cccs3)c2)cn1 [Ic-20] | 100 | 100 | 100 | – | – | 100 | 4.20 | 100 | 100 | – | – | – | – |
| Cn1nc(C(F)(F)C(F)(F)F)c(C(F)(F)F)c1-n1cc(-c2cc(OC(F)(F)F)cc(C(=O)NC3CC3)c2)cn1 [Ic-74] | 100 | 100 | 100 | 100 | 100 | – | – | – | – | – | – | – | – |
| Cc1cc(C(=O)NC2(C#N)CC2)cc(-c2cnn(-c3c(C(F)(F)F)c(C(F)(F)C(F)(F)F)nn3C)c2)c1 [Ic-56] | 100 | 100 | 100 | 100 | – | 90 | – | – | – | – | – | – | – |
| COCC(C)NC(=O)c1cc(-c2cnn(-c3c(C(F)(F)F)c(C(F)(F)C(F)(F)F)nn3C)c2)ccc1Cl (stereo not drawn) [Ic-165] | 100 | 100 | 100 | 100 | 100 | – | – | – | – | 100 | 100 | 100 | – |
| Cn1nc(C(F)(F)C(F)(F)F)c(C(F)(F)F)c1-n1cc(-c2cc(C(=O)NC3CC3)ncc2F)cn1 [Ic-72] | 100 | – | 80 | 100 | – | – | – | – | – | – | – | – | – |
| Cn1nc(C(F)(F)F)c(C#N)c1-n1cc(-c2ccc(Cl)c(C(=O)NC3(C#N)CC3)c2)cn1 [Ic-53] | 100 | 100 | 100 | – | – | – | 2.92 | 100 | – | – | – | – | – |
| Cn1nc(C(F)(F)C(F)(F)F)c(C(F)(F)F)c1-n1cc(-c2ccc(Cl)c(C(=O)NCC(=O)NCC(F)(F)F)c2)cn1 [Ic-31] | – | 100 | 90 | – | – | – | 3.65 | 100 | – | – | – | – | – |
| Cn1nc(C(F)(F)C(F)(F)F)c(C(F)(F)F)c1-n1cc(-c2ccc(Cl)c(C(=O)NCc3cc[nH]n3)c2)cn1 [Ic-157] | 100 | 90 | 100 | 100 | 100 | – | – | – | – | 100 | – | – | – |
| Cn1nc(C(F)(F)C(F)(F)F)c(C(F)(F)F)c1-n1cnc(-c2ccc(Cl)c(C(=O)NC3(C#N)CC3)c2)n1 [Ie-1] | 100 | 100 | – | – | – | – | – | 100 | – | – | – | – | 3.62 |
| Cn1nc(C(F)(F)C(F)(F)F)c(C(F)(F)F)c1-n1cc(-c2cc(Cl)nc(C(=O)NC3CC3)c2)cn1 [Ic-88] | 100 | – | 100 | 100 | – | – | – | – | – | – | – | – | – |
| Cn1nc(C(F)(F)C(F)(F)F)c(C(F)(F)F)c1-n1cc(-c2cc(Cl)nc(C(=O)NC3(C#N)CC3)c2)cn1 [Ic-89] | 100 | 90 | 100 | 100 | 83 | – | – | – | – | – | – | – | – |
| CON=Cc1c(C(F)(F)F)nn(C)c1-n1cc(-c2ccc(Cl)c(C(=O)NC3(C#N)CC3)c2)cn1 (mixture of isomers) [Ic-99] | 100 | 100 | 80 | – | – | 100 | 3.09 | 100 | – | – | – | – | – |
| O=C(NC1CC1)c1cc(-c2cnn(-c3c(C(F)(F)F)c(C(F)(F)C(F)(F)F)nn3-c3ccc([N+](=O)[O-])cc3)c2)ccc1Cl [Ic-8] | 100 | 100 | 100 | – | – | – | 4.54 | – | – | – | – | – | – |
| Cn1nc(C(F)(F)C(F)(F)F)c(C(F)(F)F)c1-n1cc(-c2cc(C(=O)NC3CC3)c(Cl)cc2F)cn1 [Ic-92] | 100 | 80 | 95 | 100 | – | – | – | – | – | – | – | – | – |
| Cn1nc(C(F)(F)C(F)(F)F)c(C(F)(F)F)c1-n1cc(-c2ccc(Cl)c(C(=O)Nc3cc[nH]n3)c2)cn1 [Ic-150] | 100 | 100 | 100 | 100 | 100 | – | – | – | – | 100 | – | – | – |
| Cn1nc(C(F)(F)C(F)(F)F)c(C(F)(F)F)c1-n1cc(-c2cc(C(=O)NC3(C#N)CC3)ccc2F)cn1 [Ic-42] | 100 | 100 | 100 | 100 | 83 | – | – | – | – | – | – | – | – |
| Cn1nc(C(F)(F)C(F)(F)F)c(C(F)(F)F)c1-n1ccc(-c2ccc(Cl)c(C(=O)NC3CC3)c2)n1 [Id-2] | 100 | 100 | 95 | – | – | – | – | 100 | 100 | – | – | – | 3.97 |
| Cn1nc(C(F)(F)C(F)(F)F)c(C(F)(F)F)c1-n1cc(-c2ccc(Cl)c(C(=O)Nc3cccnc3)c2)cn1 [Ic-149] | 100 | 100 | 100 | 100 | 100 | – | – | – | – | 100 | 80 | 100 | – |
| Cn1nc(C(F)(F)C(F)(F)F)c(C(F)(F)F)c1-n1cc(-c2cccc(C(N)=O)c2)cn1 [Ic-35] | 80 | 100 | 100 | – | – | – | 3.1 | 100 | – | – | – | – | – |
| CC(C)C(C)NC(=O)c1cc(-c2cnn(-c3c(C(F)(F)F)c(C(F)(F)C(F)(F)F)nn3C)c2)ccc1Cl (stereo not drawn) [Ic-137] | 100 | 100 | 100 | 83 | – | – | – | – | – | 100 | – | – | – |
